# Experimental data as given in patent publication US20030212123A1, “COX-2 selective carprofen for treating pain and inflammation in dogs” (Pfizer Inc., priority 1997, published 2003).
# Where “and” joins values, the source holds several entries; their conditions need not be identical. Identical values can stand only once. Like-named read-outs stand apart in the source and are kept apart here.
# What was measured:
# [1] = at equipotent anti-inflammatory activity with indomethacin, Holtsinger et al.; cited from earlier work
# [2] = target: COX-2 (derived from lipopolysaccharide stimulated J774.2 macrophages) (Mus musculus, UniProt Q05769); settings: cited from earlier work
# COX-2 (derived from lipopolysaccharide stimulated J774.2 macrophages), sequence (Q05769 18-604): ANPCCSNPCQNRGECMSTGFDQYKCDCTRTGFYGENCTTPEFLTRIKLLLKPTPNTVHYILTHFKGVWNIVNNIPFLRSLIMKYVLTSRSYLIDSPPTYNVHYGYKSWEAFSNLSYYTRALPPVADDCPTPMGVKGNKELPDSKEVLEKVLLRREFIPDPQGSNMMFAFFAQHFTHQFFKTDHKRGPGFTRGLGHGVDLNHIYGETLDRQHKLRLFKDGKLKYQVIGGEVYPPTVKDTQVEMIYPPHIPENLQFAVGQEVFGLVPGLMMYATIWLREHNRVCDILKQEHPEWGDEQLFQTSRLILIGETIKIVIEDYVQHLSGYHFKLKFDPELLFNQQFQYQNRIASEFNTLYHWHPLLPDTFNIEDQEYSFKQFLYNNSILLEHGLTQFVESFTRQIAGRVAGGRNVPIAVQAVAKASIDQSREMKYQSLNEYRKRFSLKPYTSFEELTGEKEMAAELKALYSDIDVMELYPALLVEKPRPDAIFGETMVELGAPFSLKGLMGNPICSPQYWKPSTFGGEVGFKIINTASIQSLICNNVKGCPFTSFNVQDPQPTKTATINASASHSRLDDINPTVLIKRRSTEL
# [3] = Total plasma carprofen concentration by chiral HPLC, Example 3; assay type: in vivo, dog; settings: individual dogs
# From the text: (§1) The ether layer was separated, then back-extracted with 0.005 M Na2CO3, after which the organic phase was discarded by aspiration. The aqueous phase was buffered with 0.05 M citric acid pH 5.1, then was again extracted with diethyl ether:dichloromethane. The ether was then transferred to clean tubes, evaporated under a stream of nitrogen, and the residue reconstituted in HPLC mobile phase for analysis.
# as §1
# canine COX-2 = target: T1, canine COX-2 (Canis lupus familiaris, UniProt Q8SPQ9); assay: Canine COX-2 activity: LPS-treated DH82 canine histocytoma cells, PGE2 by EIA; assay type: cell-based, dog
# T1 construct: host or cells: DH82 canine histocytoma cells, LPS-treated overnight
# T1 sequence (Q8SPQ9 18-604): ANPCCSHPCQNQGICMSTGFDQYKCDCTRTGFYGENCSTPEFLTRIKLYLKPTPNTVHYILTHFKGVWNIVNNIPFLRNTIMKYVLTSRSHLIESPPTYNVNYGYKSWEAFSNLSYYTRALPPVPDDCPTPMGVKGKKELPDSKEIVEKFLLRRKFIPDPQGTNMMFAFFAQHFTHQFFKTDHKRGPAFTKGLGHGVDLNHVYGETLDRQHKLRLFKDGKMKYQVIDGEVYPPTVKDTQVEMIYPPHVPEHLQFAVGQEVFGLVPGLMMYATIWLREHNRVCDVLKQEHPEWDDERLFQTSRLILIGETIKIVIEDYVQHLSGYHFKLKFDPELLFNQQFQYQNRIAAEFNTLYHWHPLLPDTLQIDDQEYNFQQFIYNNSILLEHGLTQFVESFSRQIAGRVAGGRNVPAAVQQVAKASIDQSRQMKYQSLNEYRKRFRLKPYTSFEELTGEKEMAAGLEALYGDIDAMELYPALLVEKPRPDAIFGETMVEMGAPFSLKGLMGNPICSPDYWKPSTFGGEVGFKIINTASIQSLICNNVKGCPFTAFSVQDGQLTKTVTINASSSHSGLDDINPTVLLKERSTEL
# Experimental: Protocol for Evaluation of Canine COX-2 Activity
# A canine histocytoma (macrophage-like) cell line from the American Type Culture Collection designated as DH82, was used in setting up the protocol for evaluating the COX-2 inhibition activity of various test drug compounds. There was added to flasks of these cells 10 μg/mL of LPS, after which the flask cultures were incubated overnight. The same test drug compound dilutions as described above for the COX-1 protocol were used for the COX-2 assay and were prepared the day before the assay was carried out. […] The test sample suspensions were incubated for 1 hr and then centrifuged at 1000 rpm for 10 min at 4° C., after which 50 μl aliquots of each test drug sample were delivered to EIA plates. The EIA was performed for prostaglandin E2 (PGE2), and the pg/mL concentration of PGE2 was calculated from the standard line included on each plate. […] The results were averaged, and a single COX-1:COX-2 ratio was calculated.
# COX-2 [4] = target: T2, COX-2 (Canis lupus familiaris, UniProt Q8SPQ9); assay: in vivo; settings: for PGE2 Pg/mL/Well: individual dogs; for inhibition at 2 mg/kg / inhibition at 4 mg/kg: dog, po
# Experimental: A zero-hour blood sample was collected from all dogs in the study prior to dosing, followed by 2- and 4-hour post-dose blood sample collections. Test tubes were prepared containing 2 μL of lipopolysaccharide (LPS) to give a 10 μg/mL final concentration. Untreated test tubes were used as controls. A 500 μL sample of blood was added to each of the above-described test tubes, after which they were incubated at 37° C. overnight. After incubation […] of EDTA was added to give a final concentration of 0.3%. The incubated samples were centrifuged at 4° C. and the resulting plasma sample of 200 μL was collected and stored at −20° C. in propylene 96-well plates. Enzyme immunoassay (EIA) kits available from Cayman were used to measure production of PGE2, with endpoint determination by colorimetry. Plasma samples were diluted to 1/750 for PGE2.
# COX-2 [5] = target: T2, COX-2; assay: in vivo; settings: for PGE2 Pg/mL/Well: 2 mg/kg PO 30 min before carrageenan, exudate fluid, group average; for inhibition at 2 mg/kg: dog, po
# Experimental: This objective of this study was to monitor in vivo COX-2 activity in a subcutaneously implanted chamber during an induced inflammation. The COX-2 enzyme can be detected by western analysis as early as 5 hours after carrageenan treatments (T. Kirchner et al., J. Pharmacol. Exp. Ther. (1997) 282, 1094-1101). […] Six beagle dogs had polyethylene “whiffle” golf balls approximately 4.2 cm in outer diameter surgically implanted under the skin just behind the shoulder blades.
# The experiment was run in two replicates. […] The hair around the ball was shaved and the area was probed to locate a hole in the whiffle ball. This area was then marked and it was sterilized with 2% iodine tincture. […] EF samples were taken at 0, 5, and 24 hours after carrageenan injection.
# The column was first washed with 10 mL of 0.1 M phosphate buffer then 10 mL water. The EF was then diluted 1:5 with 0.1 M phosphate buffer and added to the column. The column was washed with 10 mL of the phosphate buffer, then 10 mL of water. Finally, the PGE2 was removed from the column with 2.5 mL 95% ethanol.
# [6] = inspection of plot of plasma level vs % COX-2 inhibition (Example 3 data)
smiles,measurement,setting,value
"CC(C(=O)O)c1ccc2c(c1)[nH]c1ccc(Cl)cc12 (racemic) [Carprofen (rac.), 6-chloro-α-methyl-9H-carbazole-2-acetic acid]","ulcerogenic potential, times less than indomethacin",[1],16 times
same,IC50,"[2]; read-out: IC50 (μM) COX-2, as shown by Battistini et al.",11 µM
same,IC50,"[2]; read-out: IC50 (μg/mL) COX-2, n=9, LPS stimulated J774.2 macrophages",11 µM
same,Plasma concentration,"[3]; 2 mg/kg PO tablet, 2-hour",21900 ng/mL and 8600 ng/mL and 17200 ng/mL
same,Plasma concentration,"[3]; 2 mg/kg PO tablet, 4-hour",13400 ng/mL and 5700 ng/mL and 10600 ng/mL
same,Plasma concentration,"[3]; 4 mg/kg PO tablet, 2-hour",29900 ng/mL and 29000 ng/mL
same,Plasma concentration,"[3]; 4 mg/kg PO tablet, 4-hour",21100 ng/mL and 27000 ng/mL
same,concentration at 2 h,"[3]; dog, plasma, oral, 4 mg/kg, 4 mg/kg PO tablet, 2-hour",37600 ng/mL
same,concentration at 4 h,"[3]; dog, plasma, oral, 4 mg/kg, 4 mg/kg PO tablet, 4-hour",29100 ng/mL
same,IC50,canine COX-2,0.102 µM
same,PGE2 Pg/mL/Well,"COX-2 [4]; 2 mg/kg PO tablet, 0-hour (pre-dose)",293 Pg/mL/Well and 541 Pg/mL/Well and 409 Pg/mL/Well
same,PGE2 Pg/mL/Well,"COX-2 [4]; 4 mg/kg PO tablet, 0-hour (pre-dose)",471 Pg/mL/Well and 393 Pg/mL/Well and 622 Pg/mL/Well
same,PGE2 Pg/mL/Well,"COX-2 [4]; 4 mg/kg PO tablet, 2-hour post-dose",25 Pg/mL/Well and 21 Pg/mL/Well and 14 Pg/mL/Well
same,PGE2 Pg/mL/Well,"COX-2 [4]; 4 mg/kg PO tablet, 4-hour post-dose",20 Pg/mL/Well and 25 Pg/mL/Well and 14 Pg/mL/Well
same,inhibition at 2 mg/kg,"COX-2 [4]; read-out: COX-2 activity Percent Inhibition, 2 mg/kg PO tablet, 2-hour, based on each dog's zero hour value",88%
same,inhibition at 2 mg/kg,"COX-2 [4]; read-out: COX-2 activity Percent Inhibition, 2 mg/kg PO tablet, 4-hour, based on each dog's zero hour value",77%
same,inhibition at 4 mg/kg,"COX-2 [4]; read-out: COX-2 activity Percent Inhibition, 4 mg/kg PO tablet, 2-hour, based on each dog's zero hour value",95%
same,inhibition at 4 mg/kg,"COX-2 [4]; read-out: COX-2 activity Percent Inhibition, 4 mg/kg PO tablet, 4-hour, based on each dog's zero hour value",96%
same,plasma carprofen concentration at which 80% COX-2 inhibition occurred,COX-2 [4]; [6],approximately 10 μg/mL
same,plasma carprofen concentration at which 90% COX-2 inhibition occurred,COX-2 [4]; [6],approximately 20 μg/mL
same,PGE2 Pg/mL/Well,COX-2 [5]; 0-hour,6.5 Pg/mL/Well
same,PGE2 Pg/mL/Well,COX-2 [5]; 5-hour,1.9 Pg/mL/Well
same,PGE2 Pg/mL/Well,COX-2 [5]; 24-hour,3.2 Pg/mL/Well
same,inhibition at 2 mg/kg,"COX-2 [5]; read-out: In vivo COX-2 activity Percent Inhibition, 2 mg/kg PO, 5-hour after carrageenan, group average",71%
same,inhibition at 2 mg/kg,"COX-2 [5]; read-out: In vivo COX-2 activity Percent Inhibition, 2 mg/kg PO, 24-hour after carrageenan, group average",51%
